From US11357778B2, “Antagonist of the fibroblast growth factor receptor 3 (FGFR3) for use in the treatment or the prevention of skeletal disorders linked with abnormal activation of FGFR3” (INSTITUT NATIONAL DE LA SANTE ET DE LE RECHERCHE MEDICALE …, priority 2011, dated 2022)

Tested on: Fgfr3^Y367C/+ growth plate
Assay: Histology of cultured femur growth plate (HES staining, type X collagen in situ hybridization)
Assay type: cell-based, mouse
Description: Limb explants were fixed after culture in 4% paraformaldehyde at 4° C., and placed in a staining solution for 45-60 minutes (0.05% Alizarin Red, 0.015% Alcian Blue, 5% acetic acid in 70% ethanol) or embedded in paraffin. Serial […] were stained with Hematoxylin-Eosin using standard protocols for histological analysis or were subjected to in situ hybridization or immunohistochemical staining. In situ hybridization using [S35]-UTP labeled antisense ribopropes for collagen X was carried out as previously described (Delezoide et al., Hum Mol Genet, 6, 1899-1906, 1997). Sections were counterstained with Hematoxylin. For immunohistochemistry, sections were stained with antibodies specific to FGFR3 (1:250 dilution; Sigma), anti PCNA (1:1000 dilution; Abcam), anti-KI67 (1:300; Abcam), anti-cyclin D1 (1:80 dilution; Santa Cruz) and anti-p57 (1:100 dilution; Santa Cruz) using the Dako Envision kit. Images were captured with an Olympus PD70-IX2-UCB microscope. […] The inventors evaluated the impact of A31 on the growth plate (FIG. 4A). […] Histological examinations using HES staining (FIG. 10A) and type X collagen labeling (FIG. 10B) were also carried out.

COc1cc(OC)cc(-c2cc3cnc(NCc4cn(CC5CCCN(C)C5)nn4)nc3nc2NC(=O)NC(C)(C)C)c1 (stereo not drawn) [Compound A31]
size of the hypertrophic zone of the growth plate (A31, Fgfr3^Y367C/+ femur explants): marked expansion of the hypertrophic zone
type X collagen expression (in situ hybridization) (A31, Fgfr3^Y367C/+ growth plates): enhanced type X collagen expression
chondrocyte morphology (A31, data not shown): enlarged and more spherical
